Measured values published in PubChem BioAssay (NCI).
Several values for one entry are separate records, joined by “and”; a condition that tells them apart may be missing. Equal entries are not always repeated.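 Grown in 96-well plates, cells were treated for 48 hours with each compound at five concentrations. Insufficient inhibition: endpoint recorded as highest concentration tested. GI50 marks 50% less growth. At the TGI there is no net growth.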

Legend:
Test in all cases: NCI anticancer screen, dose series, 48 h
M14 melanoma = tested on: M14 melanoma
TK-10 renal = tested on: TK-10 renal
KM12 colon = tested on: KM12 colon
SF-268 CNS = tested on: SF-268 CNS
LOX IMVI melanoma = tested on: LOX IMVI melanoma
CAKI-1 renal = tested on: CAKI-1 renal
NCI/ADR-RES ovarian = tested on: NCI/ADR-RES ovarian
CCRF-CEM leukemia = tested on: CCRF-CEM leukemia
K-562 leukemia = tested on: K-562 leukemia
HOP-92 NSCLC = tested on: HOP-92 NSCLC

## Fc1ccc(CNc2c3ccccc3nc3ccccc23)cc1
M14 melanoma
  GI50: 2970 nM
  TGI: 12.4 µM
TK-10 renal
  GI50: 2830 nM
  TGI: 10.6 µM
KM12 colon
  GI50: 3270 nM
  TGI: 13.6 µM
SF-268 CNS
  GI50: 2740 nM
  TGI: 9.49 µM
LOX IMVI melanoma
  GI50: 1550 nM
  TGI: 3.07 µM
CAKI-1 renal
  GI50: 1460 nM
  TGI: 3.8 µM
NCI/ADR-RES ovarian
  GI50: 2330 nM
  TGI: 8.07 µM
CCRF-CEM leukemia
  GI50: 3120 nM
  TGI: > 100 µM
K-562 leukemia
  GI50: 2490 nM
  TGI: 16.2 µM
HOP-92 NSCLC
  GI50: 2250 nM
  TGI: 11.5 µM

## C=CCCC(O)c1ccc(C(O)CCCCCCCCCCCC)o1 (stereo not given)
M14 melanoma
  GI50: 17800 nM
  TGI: 35.3 µM
TK-10 renal
  GI50: 16400 nM
  TGI: 30.2 µM
KM12 colon
  GI50: 21700 nM
  TGI: 42.8 µM
SF-268 CNS
  GI50: > 100000 nM
  TGI: > 100 µM
LOX IMVI melanoma
  GI50: 16200 nM
  TGI: 29.7 µM
CAKI-1 renal
  GI50: 18100 nM
  TGI: 34.8 µM
NCI/ADR-RES ovarian
  GI50: 20900 nM
  TGI: 45.8 µM
CCRF-CEM leukemia
  GI50: 18400 nM
  TGI: > 100 µM
K-562 leukemia
  GI50: 9290 nM
  TGI: 27.2 µM
HOP-92 NSCLC
  GI50: 25500 nM
  TGI: 51.2 µM

## Cc1ccc(Cl)cc1Nc1nc(C(F)(F)F)ccc1C(=O)N/N=C/c1c(Cl)cccc1Cl
M14 melanoma
  GI50: 1000 nM
  TGI: 5.67 µM
TK-10 renal
  GI50: 1400 nM
  TGI: 7.39 µM
KM12 colon
  GI50: 542 nM
  TGI: 9.08 µM
SF-268 CNS
  GI50: 623 nM
  TGI: 13.4 µM
LOX IMVI melanoma
  GI50: 648 nM
  TGI: 5.15 µM
CAKI-1 renal
  GI50: 495 nM
  TGI: 3.49 µM
NCI/ADR-RES ovarian
  GI50: 522 nM
  TGI: 6.77 µM
CCRF-CEM leukemia
  GI50: 289 nM
  TGI: 1.56 µM
K-562 leukemia
  GI50: 734 nM
  TGI: > 32.1 µM
HOP-92 NSCLC
  GI50: 1140 nM
  TGI: 6.92 µM

## CC1(C)CC(=O)C(C(c2cccc(O)c2O)C2C(=O)CC(C)(C)CC2=O)C(=O)C1
M14 melanoma
  TGI: > 100 µM
TK-10 renal
  TGI: > 100 µM
KM12 colon
  TGI: > 100 µM
SF-268 CNS
  TGI: > 100 µM
LOX IMVI melanoma
  TGI: > 100 µM
CAKI-1 renal
  TGI: > 100 µM
NCI/ADR-RES ovarian
  TGI: > 100 µM
CCRF-CEM leukemia
  TGI: > 100 µM
K-562 leukemia
  TGI: > 100 µM
HOP-92 NSCLC
  TGI: > 100 µM

## O=S(=O)(O)c1ccc(Cl)cc1.[Cd]
M14 melanoma
  GI50: > 100000 nM
  TGI: > 100 µM
TK-10 renal
  GI50: > 100000 nM
  TGI: > 100 µM
KM12 colon
  GI50: 73400 nM
  TGI: > 100 µM
SF-268 CNS
  GI50: 24700 nM
  TGI: 72 µM
LOX IMVI melanoma
  GI50: > 100000 nM
  TGI: > 100 µM
CAKI-1 renal
  GI50: 36000 nM
  TGI: > 100 µM
NCI/ADR-RES ovarian
  GI50: > 100000 nM
  TGI: > 100 µM
CCRF-CEM leukemia
  GI50: 24900 nM
  TGI: 85.4 µM
K-562 leukemia
  GI50: 37500 nM
  TGI: > 100 µM
HOP-92 NSCLC
  GI50: > 100000 nM
  TGI: > 100 µM

## O=C(O)c1cc(N/C=C2\C(=O)c3ccccc3OC2O)ccc1O (stereo not given)
M14 melanoma
  GI50: 25.4 µg/mL
  TGI: 66.1 µg/mL
TK-10 renal
  GI50: 39.2 µg/mL
  TGI: 118 µg/mL
KM12 colon
  GI50: 25.7 µg/mL
  TGI: 51.6 µg/mL
SF-268 CNS
  GI50: 24 µg/mL
  TGI: 108 µg/mL
LOX IMVI melanoma
  GI50: 24.7 µg/mL
  TGI: 80.9 µg/mL
CAKI-1 renal
  GI50: 13 µg/mL
  TGI: 42 µg/mL
NCI/ADR-RES ovarian
  GI50: 21.1 µg/mL
  TGI: 82.8 µg/mL
CCRF-CEM leukemia
  GI50: 9.75 µg/mL
  TGI: 44.2 µg/mL
K-562 leukemia
  GI50: 13.3 µg/mL
  TGI: 72.1 µg/mL
HOP-92 NSCLC
  GI50: 6.73 µg/mL
  TGI: 125 µg/mL

## CCCCCCCCCCCCOC1C(CNC(=O)C2OC3OC(C)(C)OC3C2NC(=O)CN2CCN(c3ccccn3)CC2)OC2OC(C)(C)OC21 (stereo not given)
M14 melanoma
  GI50: 1680 nM
  TGI: 3.1 µM
TK-10 renal
  GI50: 1760 nM
  TGI: 3.27 µM
KM12 colon
  GI50: 2160 nM
  TGI: 4.43 µM
SF-268 CNS
  GI50: 2260 nM
  TGI: 6.31 µM
LOX IMVI melanoma
  GI50: 1880 nM
  TGI: 3.53 µM
CAKI-1 renal
  GI50: 2270 nM
  TGI: 4.59 µM
NCI/ADR-RES ovarian
  GI50: 2640 nM
  TGI: 7.39 µM
CCRF-CEM leukemia
  GI50: 2500 nM
  TGI: 5.5 µM
K-562 leukemia
  GI50: 1670 nM
  TGI: 4.56 µM
HOP-92 NSCLC
  GI50: 1700 nM
  TGI: 3.18 µM

## Nc1ccccc1/C=N\Nc1ccccc1
M14 melanoma
  GI50: 4050 nM
  TGI: > 100 µM
TK-10 renal
  GI50: > 100000 nM
  TGI: > 100 µM
KM12 colon
  GI50: 602 nM
  TGI: > 100 µM
SF-268 CNS
  GI50: > 100000 nM
  TGI: > 100 µM
LOX IMVI melanoma
  GI50: 1290 nM
  TGI: > 100 µM
CAKI-1 renal
  GI50: 1020 nM
  TGI: > 100 µM
NCI/ADR-RES ovarian
  GI50: 5800 nM
  TGI: > 100 µM
CCRF-CEM leukemia
  GI50: 431 nM
  TGI: > 100 µM
K-562 leukemia
  GI50: 3240 nM
  TGI: > 100 µM
HOP-92 NSCLC
  GI50: 6270 nM
  TGI: > 100 µM

## CC1(C)CC(=O)C2=C(C1)NC(SSC1=C(C#N)C(c3ccc(Br)cc3)C3=C(CC(C)(C)CC3=O)N1)=C(C#N)C2c1ccc(Br)cc1 (stereo not given)
M14 melanoma
  GI50: 51.4 µg/mL
  TGI: > 100 µM and 150 µg/mL
TK-10 renal
  GI50: > 150 µg/mL
  TGI: > 100 µM and 150 µg/mL
KM12 colon
  GI50: > 150 µg/mL
  TGI: > 100 µM and 150 µg/mL
SF-268 CNS
  GI50: > 150 µg/mL
  TGI: > 100 µM and 150 µg/mL
LOX IMVI melanoma
  GI50: 22.9 µg/mL
  TGI: > 100 µM and 46.6 µg/mL
CAKI-1 renal
  GI50: > 150 µg/mL
  TGI: > 100 µM and 150 µg/mL
NCI/ADR-RES ovarian
  GI50: 28.9 µg/mL
  TGI: > 100 µM and 64.1 µg/mL
CCRF-CEM leukemia
  GI50: 34.3 µg/mL
  TGI: > 100 µM and 107 µg/mL
K-562 leukemia
  GI50: 30.8 µg/mL
  TGI: > 100 µM and 76.4 µg/mL
HOP-92 NSCLC
  GI50: 46.4 µg/mL
  TGI: > 100 µM and 116 µg/mL
